Experimental data as given in patent US10206911B2, “Androgen receptor variants and methods for making and using” (MEMORIAL SLOAN-KETTERING CANCER CENTER, priority 2012, dated 2019).
Numbering of substitutions follows the chain as printed. “Also recorded” adds a separate entry of the source.

Legend:
AR WT = molecular target: T1, AR WT (Homo sapiens, UniProt P10275, DEL79-80/DUP473-473); experiment: EGFP reporter assay of AR activity, LNCaP-Pb.PSE.EGFP cells, flow cytometry; format: cell-based; details: 10 μM, 4 days of treatment
T1 construct: expressed in transfected cells; host or cells: LNCaP-Pb.PSE.EGFP (pantropic retroviral infection, blasticidin selection)
T1 sequence (P10275 with tags, fused parts or gaps DEL79-80/DUP473-473): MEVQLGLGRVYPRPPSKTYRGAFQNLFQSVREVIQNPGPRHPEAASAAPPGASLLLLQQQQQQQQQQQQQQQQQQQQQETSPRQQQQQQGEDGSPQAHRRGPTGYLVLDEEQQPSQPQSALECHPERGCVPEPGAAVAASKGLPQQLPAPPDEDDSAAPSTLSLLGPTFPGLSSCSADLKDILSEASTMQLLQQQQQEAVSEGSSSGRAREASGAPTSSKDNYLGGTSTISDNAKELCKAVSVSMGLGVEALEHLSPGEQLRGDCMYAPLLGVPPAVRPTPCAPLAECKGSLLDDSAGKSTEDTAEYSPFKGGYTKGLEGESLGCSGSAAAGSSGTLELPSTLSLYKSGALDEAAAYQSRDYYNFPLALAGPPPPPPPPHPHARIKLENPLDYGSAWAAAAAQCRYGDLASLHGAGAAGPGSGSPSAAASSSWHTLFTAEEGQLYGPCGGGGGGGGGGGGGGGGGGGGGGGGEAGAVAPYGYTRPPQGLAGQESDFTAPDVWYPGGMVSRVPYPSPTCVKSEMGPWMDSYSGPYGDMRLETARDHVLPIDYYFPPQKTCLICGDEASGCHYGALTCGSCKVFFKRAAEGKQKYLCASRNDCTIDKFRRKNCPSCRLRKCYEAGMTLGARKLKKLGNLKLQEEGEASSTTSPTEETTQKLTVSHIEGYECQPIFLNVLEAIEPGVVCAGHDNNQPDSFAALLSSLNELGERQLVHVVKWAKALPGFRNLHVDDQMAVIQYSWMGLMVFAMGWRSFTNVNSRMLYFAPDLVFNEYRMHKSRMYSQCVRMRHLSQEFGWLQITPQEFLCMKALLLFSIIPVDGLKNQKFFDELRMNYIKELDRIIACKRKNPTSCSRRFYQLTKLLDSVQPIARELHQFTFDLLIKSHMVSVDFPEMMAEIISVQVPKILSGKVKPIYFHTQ
From the text: (§1) This clone was used for all flow cytometry assays and for the FACS-based resistance screens.

AR F876L = molecular target: T2, AR F876L (Homo sapiens, UniProt P10275, DEL79-80/DUP473-473/F877L); experiment: as above; format: cell-based; details: 10 μM, 4 days of treatment
T2 construct: expressed in transfected cells
T2 sequence (P10275 with tags, fused parts or gaps DEL79-80/DUP473-473/F877L): T1 sequence (P10275 with tags, fused parts or gaps DEL79-80/DUP473-473) with F876L
From the text: as §1

[1] = tested on: AR mutants isolated from drug resistant LNCaP/AR xenograft tumors; experiment: Luciferase reporter assay of AR activity in androgen depleted media, CV1 cells; format: cell-based, human; details: 10 μm antiandrogen
[2] = tested on: AR mutants isolated from drug resistant LNCaP/AR xenograft tumors; experiment: EGFP reporter assay of AR activity, LNCaP/Pb.PSE.EGFP cells; format: cell-based, human; details: androgen containing media, 10 μM antiandrogen
Procedure: Additionally, EGFP reporter assays of AR activity in cells expressing the indicated AR mutants were performed and the data are presented in FIG. 21A and FIG. 21B.

[3] = tested on: AR mutants isolated from drug resistant CWR22Pc cells; experiment: EGFP reporter assay and qRT-PCR, LNCaP/Pb.PSE.EGFP cells; format: cell-based, human; details: 10 μM antiandrogen; variable degrees, gene-specific differences
[4] = tested on: VCaP cells overexpressing AR F876L; experiment: VCaP growth assay (CellTiter-GLO); format: cell-based, human; details: full-serum containing media, 10 μM
[5] = tested on: VCaP cells overexpressing AR WT; experiment: VCaP growth assay (CellTiter-GLO); format: cell-based, human; details: full-serum containing media, 10 μM
[6] = tested on: DU145 (an AR null human prostate cancer cell line); experiment: DU145 cell viability (CellTiterGLO); format: cell-based; details: 10 μM, full serum containing media
Procedure: DU145 cells were cultured in full serum containing media with 10 uM of the indicated antiandrogens. CellTiterGLO assay was performed on days 0, 3, and 6 to determine cell viability. RLU=relative light units.

[7] = tested on: CWR22PC cells expressing AR WT; experiment: CWR22PC cell viability (CellTiterGLO); format: cell-based, human; details: full serum media; days 1, 4, and 7
Procedure: […]. […] CellTiterGLO assay was performed on days 1, 4, and 7 to measure cell viability. […] CellTiterGLO assay was performed on days 1, 4, and 7 to measure cell viability.
[…]. […] CellTiterGLO assay was performed on days 1, 4, and 7 to determine cell viability. RLU=relative light units.

[8] = tested on: LNCaP/AR cells ectopically expressing AR WT; experiment: LNCaP/AR xenograft, time to tumor progression; format: in vivo, castrated male SCID mice; details: 30 mg/kg enzalutamide, daily gavage, castrate SCID mice
Procedure: Daily gavage treatment (using a formulation of 1% carboxymethyl cellulose, 0.1% Tween-80, 5% DMSO) was initiated on the day of injection. Once tumors were palpable, tumor size was measured weekly in three dimensions (1×w×d) with calipers.

AR T877A = molecular target: T3, AR T877A (Homo sapiens, UniProt P10275, DEL79-80/DUP473-473/T878A); experiment: AR luciferase reporter assay (ARE(4X)-luciferase) in CV1 cells; format: cell-based; details: 10 μM antiandrogen
T3 construct: expressed in transfected cells; host or cells: CV1
T3 sequence (P10275 with tags, fused parts or gaps DEL79-80/DUP473-473/T878A): T1 sequence (P10275 with tags, fused parts or gaps DEL79-80/DUP473-473) with T877A
Procedure: Transfection media was removed 4-6 hours later and replaced with phenol red free DME-HG containing 10% charcoal stripped serum. The following day each plate was split into 24- or 48-well plates, in 10% CSS media, containing the indicated drugs in triplicate. Twenty-four to forty-eight hours later, luciferase activity was assayed using Dual-Luciferase Reporter Assay System (Promega) on a 96-well luminometer (Turner Biosystems).

CNC(=O)c1ccc(N2C(=S)N(c3cnc(C#N)c(C(F)(F)F)c3)C(=O)C23CCCC(C)(C)C3)cc1F (racemic) [(±)-DR106, 4-(3-(6-cyano-5-(trifluoromethyl)pyridin-3-yl)-7,7-dimethyl-4-oxo-2-thioxo-1,3-diazaspiro[4.5]decan-1-yl)-2-fluoro-N-methylbenzamide]
Effect on transcriptional activity of AR WT in EGFP reporter assay (agonism or antagonism) (AR WT): effectively antagonized
Effect on transcriptional activity of AR F876L in EGFP reporter assay (agonism or antagonism) (AR F876L): effectively antagonized; also recorded: AR F876L inhibition

CNC(=O)c1ccc(N2C(=S)N(c3cnc(C#N)c(C(F)(F)F)c3)C(=O)C23CCC3)cc1F [ARN-509]
Agonism on AR mutants, luciferase reporter [1]: none of the mutants conferred agonism
Sensitivity of AR mutants, EGFP reporter [2]: still remained sensitive
Sensitivity of AR mutants, EGFP reporter assay & qRT-PCR [3]: still remained sensitive

CNC(=O)c1ccc(N2C(=S)N(c3ccc(C#N)c(C(F)(F)F)c3)C(=O)C23CCCCC3)cc1F [DR101, 4-(3-(4-cyano-3-(trifluoromethyl)phenyl)-4-oxo-2-thioxo-1,3-diazaspiro[4.5]decan-1-yl)-2-fluoro-N-methylbenzamide]
Growth of VCaP cells overexpressing AR F876L [4]: did not inhibit cell growth
Growth of VCaP cells, AR WT [5]: only inhibit the growth of VCaP/AR WT
Effect on transcriptional activity of AR F876L in EGFP reporter assay (agonism or antagonism) (AR F876L): agonist

CNC(=O)c1ccc(N2C(=S)N(c3ccc(C#N)c(C(F)(F)F)c3)C(=O)C23CCC(C)(C)CC3)cc1F [DR104, 4-(3-(4-cyano-3-(trifluoromethyl)phenyl)-8,8-dimethyl-4-oxo-2-thioxo-1,3-diazaspiro[4.5]decan-1-yl)-2-fluoro-N-methylbenzamide]
Proliferation of DU145 cells [6]: no significant growth inhibition
Effect on transcriptional activity of AR WT in EGFP reporter assay (agonism or antagonism) (AR WT): antagonist
Effect on transcriptional activity of AR F876L in EGFP reporter assay (agonism or antagonism) (AR F876L): modest agonist

CNC(=O)c1ccc(N2C(=S)N(c3ccc(C#N)c(C(F)(F)F)c3)C(=O)C23CC(C)(C)CC(C)(C)C3)cc1F [DR105, 4-(3-(4-cyano-3-(trifluoromethyl)phenyl)-7,7,9,9-tetramethyl-4-oxo-2-thioxo-1,3-diazaspiro[4.5]decan-1-yl)-2-fluoro-N-methylbenzamide]
Effect on transcriptional activity of AR WT in EGFP reporter assay (agonism or antagonism) (AR WT): effectively antagonized; also recorded: inhibited
Effect on transcriptional activity of AR F876L in EGFP reporter assay (agonism or antagonism) (AR F876L): effectively antagonized; also recorded: inhibited

CNC(=O)c1ccc(N2CC(=O)N(c3ccc(C#N)c(C(F)(F)F)c3)C2=S)cc1F [DR107, 4-(3-(4-cyano-3-(trifluoromethyl)phenyl)-4-oxo-2-thioxoimidazolidin-1-yl)-2-fluoro-N-methylbenzamide]
Effect on transcriptional activity of AR WT in EGFP reporter assay (agonism or antagonism) (AR WT): agonist
Effect on transcriptional activity of AR F876L in EGFP reporter assay (agonism or antagonism) (AR F876L): agonist

CNC(=O)c1ccc(N2C(=S)N(c3ccc(C#N)c(C(F)(F)F)c3)C(=O)C2(C)C)cc1F [enzalutamide]
Growth/viability of CWR22PC cells, AR WT [7]: very sensitive
Agonism on AR mutants, luciferase reporter [1]: none of the mutants conferred agonism
Growth of wild-type AR tumors [8]: almost completely inhibited
Sensitivity of AR mutants, EGFP reporter [2]: still remained sensitive
Growth of VCaP cells, AR WT [5]: only inhibit the growth of VCaP/AR WT; also recorded: potently inhibits the growth
Sensitivity of AR mutants, EGFP reporter assay & qRT-PCR [3]: still remained sensitive

CC(C)(O)C(=O)Nc1ccc([N+](=O)[O-])c(C(F)(F)F)c1 [hydroxyflutamide]
Agonism in luciferase reporter (AR T877A): confer agonism
